Read-outs that look alike come from different tables or passages of the source. Ends that are not written are not given here.
Assays:
[1] = tested on: Candida parapsilosis ATCC 22019; experiment: MIC, broth microdilution (CLSI M27-A2); assay type: cell-based
Description: (§1) C. albicans strains SC5314 and ATCC 90028, C. krusei ATCC 6258 and C. parapsilosis ATCC 22019 were used in the study. The strains were stored at −80°C in nutrient broth supplemented with 2.0% glycerol stock. Prior to experimentation, each strain was streaked for single colonies on Sabouraud Dextrose (SDA) agar plates and incubated overnight at 37°C.
(§2) Antifungal activity of the designed peptides was determined according to a standardized broth microdilution method (Clinical and Laboratory Standards Institute (CLSI) document M27-A2). Briefly, the yeast colonies from 24- hour-old cultures of Candida species were picked and resuspended in 5 mL of sterile 0.145 mol/L saline and adjusted to cell density of 1 × 10^6 to 5 × 10^6 cells/ml. The yeast stock suspension was then diluted to obtain a starting inoculum of 5.0 × 10^2 to 2.5 × 10^3 cells/ml. […] The drugs were dissolved in DMSO and prepared to a stock concentration of 25 mg/L and 50 mg/L, respectively. […] 100 μL of standardized yeast suspension was then added to each well. Plates were incubated for 48 hours at 37°C. The minimum inhibitory concentration (MIC) was defined as the lowest concentration that inhibited 90% growth of Candida species. The MICs were determined three times and each time in duplicate.

Candida albicans SC 5314 = experiment: MIC, broth microdilution (CLSI M27-A2); assay type: cell-based
Description: as §1, §2

[2] = tested on: Candida albicans ATCC 90028; experiment: MIC, broth microdilution (CLSI M27-A2); assay type: cell-based
Description: as §1, §2

Candida krusei ATCC 6258 = experiment: MIC, broth microdilution (CLSI M27-A2); assay type: cell-based
Description: as §1, §2

C. albicans SC5314 = experiment: Time killing assay; assay type: cell-based, Candida albicans
Description: A fungal suspension was adjusted to a 0.5 McFarland turbidity standard with cell density of 1 × 10^6 to 5 × 10^6 cells/ml. 100 μL of adjusted yeast suspension was exposed to 900 μL of RPMI medium containing peptide, yielding a starting inoculum of approximately 10^5 cells/ml. The solutions were incubated at 37°C with agitation. At the predetermined time interval of 0, 1, 2, 4 and 6 hours, 10 μL or 30 μL of the samples were removed, serially diluted with phosphate-buffered saline (PBS) and plated on SDA plates to allow colony counts after 24 hours of incubation. Controls for yeast growth and antifungal agents were also performed. The lower limit of accurate and reproducible quantitation was 100 CFU/ml. Results were obtained from three independent experiments.

VK2/E6E7 cell line = experiment: cells
Description: (§3) The human normal vaginal epithelial cell line VK2/E6E7 (ATCC® CRL-2616™) and human normal esophagus epithelial cell line Het-1A (ATCC® CRL-2692™) were used for cytotoxicity testing. VK2/E6E7 cell line was grown in Keratinocyte-Serum Free medium (GIBCO-BRL 17005-042) supplemented with 0.1 ng/ml human recombinant EGF, 0.05 mg/ml bovine pituitary extract, and 44.1 mg/L calcium chloride. […] Cell viability was measured by using CellTiter 96® Aqueous Non-Radioactive Cell Proliferation Assay (Promega, USA) and the colourimetric changes were determined at 490 nm using a microplate reader. […] Results were recorded by averaging three repeated experiments and each experiment was performed in duplicate.

Het-1A cell line = experiment: cells
Description: as §3

Candida strains = experiment: MIC, broth microdilution, range stated over several Candida strains; assay type: cell-based, Candida spp.
Description: as §1, §2

human erythrocytes = experiment: Haemolytic assay; assay type: cell-based
Description: Freshly collected human blood with heparin was centrifuged to remove the buffy coat. The erythrocytes were washed three times with PBS, centrifuged for 10 min at 2000 rpm at 10°C, and resuspended in PBS to 4% (vol/vol). […] PBS and 0.1% Triton X-100 were used as agents to induce 0 and 100% haemolysis, respectively. Plates were incubated for 1 hour at 37°C and centrifuged at 2000 rpm for 10 min. The supernatant (100 μL) was transferred to a 96-well flat-bottomed polystyrene plate, and the release of haemoglobin was monitored by measuring the absorbance at 560 nm using a microplate reader. Results were repeated three times and each time in duplicate. The percentage of haemolysis was calculated using the following formula: [drawing 2] where Ap and A100 represent the absorbance of erythrocytes treated with peptide and 0.1% Triton X-100. A0 is the absorbance of erythrocytes without treatment.

[3] = range against C. albicans and C. krusei

Substance | Minimum Inhibitory Concentration (MIC) ([1]; ATCC 22019, 48 h) | Minimum Inhibitory Concentration (MIC) (Candida albicans SC 5314; SC 5314, 48 h) | Minimum Inhibitory Concentration (MIC) ([2]; ATCC 90028, 48 h) | Minimum Inhibitory Concentration (MIC) (Candida krusei ATCC 6258; ATCC 6258, 48 h) | % killing (C. albicans SC5314; SC5314, 6 h, 2) | mean log decrease in viable cells (C. albicans SC5314; SC5314, 6 h, 2) | IC50 (VK2/E6E7 cell line; 24 h) | IC50 (VK2/E6E7 cell line; 48 h) | IC50 (VK2/E6E7 cell line; 72 h) | IC50 (Het-1A cell line; 24 h) | IC50 (Het-1A cell line; 48 h) | IC50 (Het-1A cell line; 72 h) | MIC values, range (Candida strains; 48 h) | Haemolytic activity HC10 (human erythrocytes; red cells of human, 1 h) | Haemolytic activity HC50 (human erythrocytes; red cells of human, 1 h) | further results
GIWKKWIKKVVNVLKNLF-NH2 [KU1] | 16 µg/mL | 16 µg/mL | 32 µg/mL | 32 µg/mL | 99.82% | 2.95 ± 0.59 log CFU/mL | 4.28 ± 0.60 µg/mL | 4.71 ± 0.22 µg/mL | 7.84 ± 1.99 µg/mL | 3.61 ± 0.19 µg/mL | 4.59 ± 0.26 µg/mL | 7.27 ± 1.17 µg/mL | 16 to 32 µg/mL | 8.07 ± 1.60 mg/L | 58.19 ± 2.04 mg/L | 
GIWKKWIKKWLKKLKNLF-NH2 [KU4] | 32 µg/mL | 32 µg/mL | 64 µg/mL | 16 µg/mL | > 99.99% | 5.55 ± 0.08 log CFU/mL | 8.75 ± 1.04 µg/mL | 10.55 ± 2.33 µg/mL | 19.46 ± 4.29 µg/mL | 9.75 ± 1.34 µg/mL | 10.47 ± 0.50 µg/mL | 14.53 ± 1.58 µg/mL | 16 to 64 µg/mL | 49.38 ± 5.14 mg/L |  | Haemolytic activity HC50 (human erythrocytes): > 256 mg/L
GIWKKWIKKWLKKLLKKLWKKG-NH2 [KABT-AMP, reference compound] |  |  |  |  |  |  |  |  |  |  |  |  |  |  |  | Minimum Inhibitory Concentration (MIC) ([1]; C. parapsilosis ATCC 22019, RPMI 1640-MOPS, 48 h, 37°C, lowest concentration inhibiting 90% growth, three times in duplicate): 64 µg/mL; Minimum Inhibitory Concentration (MIC) (Candida albicans SC 5314; C. albicans SC 5314, RPMI 1640-MOPS, 48 h, 37°C, lowest concentration inhibiting 90% growth, three times in duplicate): 32 µg/mL; Minimum Inhibitory Concentration (MIC) ([2]; C. albicans ATCC 90028, RPMI 1640-MOPS, 48 h, 37°C, lowest concentration inhibiting 90% growth, three times in duplicate): 64 µg/mL; Minimum Inhibitory Concentration (MIC) (Candida krusei ATCC 6258; C. krusei ATCC 6258, RPMI 1640-MOPS, 48 h, 37°C, lowest concentration inhibiting 90% growth, three times in duplicate): 64 µg/mL; % killing (C. albicans SC5314; 2× MIC, within 4 hours): > 99.99%; mean log decrease in viable cells (C. albicans SC5314; 2× MIC, within 4 hours, RPMI, 37°C, mean ± SD of three experiments): 5.4 ± 0.09 log CFU/mL; MIC values, range (Candida strains; range against four Candida strains (C. albicans and non-albicans species)): 32 to 64 µg/mL; Haemolytic activity HC10 (human erythrocytes; concentration causing 10% haemolysis, 1 hour, 37°C, erythrocyte suspension 4% in PBS, three times in duplicate): 4.67 ± 2.09 mg/L; Haemolytic activity HC50 (human erythrocytes; concentration causing 50% haemolysis, 1 hour, 37°C, erythrocyte suspension 4% in PBS, three times in duplicate): 81.23 ± 8.92 mg/L
GIWKKWIKKWLKVLKNLF-NH2 [KU3] | 8 µg/mL | 8 µg/mL | 16 µg/mL | 16 µg/mL | 99.94% | 3.28 ± 0.30 log CFU/mL | 4.43 ± 0.39 µg/mL | 5.32 ± 0.84 µg/mL | 7.83 ± 1.41 µg/mL | 4.33 ± 0.52 µg/mL | 4.62 ± 0.65 µg/mL | 6.36 ± 1.34 µg/mL | 8 to 16 µg/mL | 5.65 ± 0.85 mg/L | 55.20 ± 11.90 mg/L | 
GIWKKWIKKWLNVLKNLF-NH2 [KU2] | 8 µg/mL | 8 µg/mL | 16 µg/mL | 16 µg/mL | 99.73% | 2.77 ± 0.54 log CFU/mL | 5.42 ± 0.49 µg/mL | 7.01 ± 0.84 µg/mL | 11.38 ± 1.75 µg/mL | 5.51 ± 0.44 µg/mL | 6.03 ± 0.43 µg/mL | 8.89 ± 1.40 µg/mL | 8 to 16 µg/mL | 7.33 ± 0.73 mg/L | 57.71 ± 9.80 mg/L | 
GVIDAAKKVVNVLKNLF-NH2 [Uperin 3.6, reference compound] | 128 µg/mL | 64 µg/mL | 128 µg/mL | 64 µg/mL |  |  | 17.14 ± 4.32 µg/mL | 23.59 ± 1.18 µg/mL | 24.69 ± 6.02 µg/mL | 17.60 ± 2.52 µg/mL | 17.94 ± 1.96 µg/mL | 23.23 ± 2.98 µg/mL | 64 to 128 µg/mL |  |  | % killing (C. albicans SC5314; SC5314, 4 h, 2): > 99.99%; mean log decrease in viable cells (C. albicans SC5314; SC5314, 4 h, 2): 5.54 ± 0.13 log CFU/mL; Haemolytic activity HC10 (human erythrocytes): > 256 mg/L; Haemolytic activity HC50 (human erythrocytes): > 256 mg/L
GVIKAAKKVVKVLKKLF-NH2 [Upn-lys6] | 16 µg/mL | 32 µg/mL | 64 µg/mL | 32 µg/mL |  |  | 9.07 ± 1.92 µg/mL | 10.04 ± 3.27 µg/mL | 9.87 ± 1.46 µg/mL | 7.49 ± 1.77 µg/mL | 7.92 ± 1.22 µg/mL | 11.20 ± 0.86 µg/mL |  | >256 mg/L | >256 mg/L | % killing (C. albicans SC5314; SC5314, 4 h, 2): > 99.99%; mean log decrease in viable cells (C. albicans SC5314; SC5314, 4 h, 2): 5.56 ± 0.07 log CFU/mL; MIC values, range (Candida strains; [3]): 32 to 64 µg/mL
GVIKAAKKVVKVLKNLF-NH2 [Upn-lys5] | 32 µg/mL | 32 µg/mL | 64 µg/mL | 32 µg/mL | 99.99% | 4.95 ± 1.24 log CFU/mL | 8.67 ± 2.21 µg/mL | 10.28 ± 4.53 µg/mL | 9.12 ± 1.20 µg/mL | 9.73 ± 1.19 µg/mL | 9.83 ± 1.40 µg/mL | 15.73 ± 0.39 µg/mL |  | >256 mg/L | >256 mg/L | MIC values, range (Candida strains; [3]): 32 to 64 µg/mL
GVIKAAKKVVNVLKNLF-NH2 [Upn-lys4] | 64 µg/mL | 64 µg/mL | 128 µg/mL | 64 µg/mL | 99.97% | 4.12 ± 1.36 log CFU/mL | 15.45 ± 2.64 µg/mL | 16.55 ± 0.55 µg/mL | 19.98 ± 1.84 µg/mL | 14.12 ± 4.35 µg/mL | 14.71 ± 4.44 µg/mL | 23.64 ± 2.82 µg/mL |  | >256 mg/L | >256 mg/L | 

Reference: article PMC4603303, “Activity of Novel Synthetic Peptides against Candida albicans” (Scientific Reports, 2015)
